Patent US7524487B2, “Compositions and methods for modulating interleukin-10” (University of Maryland, priority 2005, dated 2009)

Experiments:
[1] = test system: Sp1; experiment: EMSA of Sp1 binding to the IL-10 promoter motif, nuclear extracts of BMMφ; type: cell-based, mice; details: BMMφ stimulated with LPS 10 ng/ml or LPS+E-IgG for 30 min
Method: A. Cells were stimulated with LPS (10 ng/ml) or LPS+E-IgG for 30 min and nuclear extracts were analyzed by EMSA using Sp1 (A) or STAT3 (B) specific probes. C. RAW264.7 cells were stimulated with medium (open bar), E-IgG (dotted bar), LPS (solid bar) or LPS+E-IgG (striped bar) and cytokines measured by ELISA after 6 h. Data represents the mean of triplicate samples±SD. D. RAW264.7 cells were transfected with pRL-IL10-luciferase reporter plasmid (5 ug/ml) and 24 h later stimulated with medium (con), 10 ng/ml LPS (solid bar) or E-IgG+LPS (striped bar) for 4 h. Cells were then lysed and luciferase activity measured. This figure is representative of 3 experiments.
Electrophoretic mobility shift assay (EMSA). Nuclear extracts were prepared from 2×10^7 Mφ using the Nuclear Extraction kit (Panomics, Redwood City, Calif.) following the manufactures protocol. EMSAs were carried out using the EMSA “Gel-Shift” kit (Panomics, Redwood City, Calif.). Briefly, 5 μg of nuclear extract were incubated with biotin-Sp1 or STAT3 probe±unlabelled probe for 30 min at 20° C., and then run on a 6% polyacrylamide gel. Oligo/protein complexes were transferred to Biodyne B membrane (Pall, Ann Arbor, Mich.). Following transfer, membranes were incubated with streptavidin-HRP and protein visualized by chemiluminescence.

[2] = test system: bone marrow derived macrophages (BMMφ); experiment: Cytokine ELISA on supernatants of stimulated bone marrow derived macrophages (LPS ± E-IgG)

Sp1 binding to the IL-10 promoter (EMSA) [1]: no effect
SMILES: COc1cccc(-c2cc(=O)c3ccccc3o2)c1N [PD98059]
IL-10 secretion (ELISA) ([2]; BMMφ pretreated 30 min with PD98059 10 μM, SB203580 1 μM or JNK inhibitory peptide 1 μM, then LPS 10 ng/ml ± E-IgG, supernatants after 20 h): substantial inhibition | IL-12 (p40) production (ELISA) ([2]; BMMφ pretreated 30 min with inhibitor, then LPS 10 ng/ml ± E-IgG, 20 h): actually increased | superinduction (augmentation) of IL-10 production caused by immune complexes ([2]; BMMφ, LPS 10 ng/ml + E-IgG versus LPS alone, 20 h, inhibitor pretreatment or 100 nM siRNA): appeared to prevent
